Results taken from patent publication US20210267886A1, “Gel-In-Oil Emulsion and Transdermally Absorbed Agent” (Nippon Shokubai Co., Ltd., priority 2018, published 2021).

Tested on: L929 cell-embedded collagen gel (cultured dermis model)
Test: Titer evaluation using cultured dermis model (quantification of DNA)
Type: cell-based
Method: Ultrapure water was added to a collagen made of pig skin (manufactured by NH Foods Ltd.), and the obtained mixture was stirred overnight at 4° C. to prepare a 1% collagen solution. A L929 cell suspension (obtained by collecting cultured L929 cells and suspending the collected L929 cells in a culture medium) (6×10^5 cells) was centrifuged at 1000 rpm for 3 minutes, and the supernatant was removed by suction. A 20% fetal bovine serum (Fetal Bovine Serum, manufactured by FBS bio sera) was added to a Dulbecco's Modified Eagle Medium (DMEM) (manufactured by Thermo Fisher Scientific Inc.) prepared at a concentration of twice to prepare a 2-fold concentrated DMEM culture medium. L929 cells were suspended in a solution in which the 1% collagen solution and the 2-fold concentrated DMEM culture medium were mixed at a ratio of 1:1. This suspension was added to a 12-well plate at 1 ml/well, and was left to stand in an incubator for 1 hour to allow the suspension to turn into a gel.
A ring made of polycarbonate (outer diameter: 1.4 cm, inner diameter: 1.2 cm, and height: 0.3 cm) was placed on a L929 cell-embedded collagen gel (cultured dermis model) prepared in Synthesis Example 1. 200 μl of the bFGF-containing G/O emulsion described above was added to the inside the ring. 200 μl of DMEM culture medium was added to the outside of the ring, and the gel was placed in an incubator. The culture medium was changed every day, and the amounts of DNA in the L929 cell-embedded collagen gel after 1 day, 3 days, and 5 days were quantified. The quantification of DNA was performed as follows.
A liquid in which 1 ml of 0.25% collagenase solution (manufactured by Wako Pure Chemical Industries, Ltd.) was added to a L929 cell-embedded collagen gel was referred to as liquid E. A liquid in which a gel was dissolved by shaking the gel at 37° C. for around 1 hour was referred to as liquid F. Each sample was centrifuged at 1000 rpm for 3 minutes, and the supernatant was removed by suction. Triton X-100 (manufactured by Sigma) was added to the above-described PBS to prepare 0.1% Triton X-100-containing PBS, and the sample was suspended in 1 ml of the 0.1% Triton X-100-containing PBS. The obtained suspension was frozen at −80° C., and then thawed at room temperature. This operation was repeated 3 times. 180 μl of Hoechst (Hoechst (registered trademark), manufactured by Thermo Fisher Scientific K.K.) was mixed with 20 μl of sample, and the obtained mixture was added in a 96-well black plate. By using Fluorescent DNA Quantitation Kit Cat. #170-2480 (BIO-RAD), the quantification of DNA was performed with fluorescent brightness measurement under the conditions of an excitation filter of 355 nm and an absorption filter of 460 nm. The fluorescent brightness was measured 3 times, and the average was taken to obtain the amount of DNA. The quantification of DNA was performed before the start of the test (0 day), and 1 day, 3 days, 5 days, and 7 days after the start of the test.

Substance: Comparative Example 3: bFGF (basic fibroblast growth factor) used as it was
- Amount of DNA (0 Day (before the start of the test)): 43 ng
- Amount of DNA (After 1 day, 200 μl sample): 74 ng
- Amount of DNA (After 3 days, 200 μl sample): 145 ng
- Amount of DNA (After 5 days, 200 μl sample): 187 ng
- Amount of DNA (After 7 days, 200 μl sample): 192 ng
